Columns and labels:
[1] = system: C. albicans; assay: topical treatment of C. albicans skin infections of mice; assay type: in vivo; conditions: female CF-1 mice, shaved back skin infected with clinical isolates; topical treatment for 5 days; aculeacin A at its MIC for each isolate; compared with aculeacin A itself, Lotrimin cream and control
Protocol: Clinical isolates of C. albicans were grown in Sabouarud dextrose agar and subcultured into mouse serum and incubated at 35 C. Female mice (CF-1, 4 to 6 weeks old) were shaved on the back (2cm ^2 area).
The shaved area was cleaned with 70%'alcohol and scrubbed with a wire brush. This area was then painted with the C. albicans in mouse serum as noted above (10^5-10^6 CFu/ml.) and after drying this area was covered with sterile gauze and the infection was allowed to develop over two days. After the development of the infection, the mice were treated with aculeacin A/oleic acid composition, aculeacin A and Lotrimin^R (Clotrimazole-Schering) for 5 days. The minimum inhibitory concentration (MIC) for aculeacin A for each clinical isolate of C. albicans was determined and that amount was employed in each experiment. Commercially available Lotrimin^R cream was utilized in each experiment. […] Note that bacterial contamination was ruled out by microscopic examination. • [formula] where 4 - the most severe infection - zone of inoculation highly erythrematous with culture mainly consisting of C. albicans. • 3 - severe infection with some healing • 2 - less severe infection • 1 - very little infection • 0 - no infection.

[2] = system: Candida albicans B 3153A; assay: disc diffusion, zone of inhibition on seeded agar plates; assay type: cell-based; conditions: Table IV-a, 16-18 h, 28-37°C
Protocol: (§1) The antifungal activity of aculeacin A and the compositions of aculeacin A and fatty acids was measured by disc diffusion. Potentiation of antifungal activity was examined by three different methods employing: (1) a single concentration of aculeacin A and a single concentration of known fatty acids; '(2) various concentrations of aculeacin A with a single concentration of individual fatty acids; and (3) various concentrations of fatty acids with a single concentration of aculeacin A. The antifungal activities of aculeacin A and the fatty acids were separately checked as controls.
(§2) The antifungal effects of compositions containing a single amount of aculeacin A while varying the amounts. of oleic acid as the sodium salt were determined by utilizing seeded plates of Candida albicans strains B 311, BC 759 and B 3153A and measuring the zone of inhibition after 16-18 hours at 28-37°C. This test was also performed with linoleic acid and linolenic acid.
(§3) The seeded plates of Candida albicans strains B 311, BC 759, and B 3153A were prepared by inoculating 50 ml of trypticase soy broth (BBL) with one ml of the preserved frozen culture and incubating the inoculum at 37°C for 7 hours on a rotary shaker. Two milliliters of this culture were used to inoculate one liter of Sabouarud dextrose agar (Difco) at 50°C and 15 milliliters of the resultant medium poured into 150 mm petri-dishes.

[3] = system: Candida albicans BC 759; assay: as above; assay type: cell-based; conditions: Table IV-a, 16-18 h, 28-37°C
Protocol: as §1, §2, §3

[4] = system: Candida albicans B 311; assay: as above; assay type: cell-based; conditions: 16-18 h; for Zone Size / Zone Size B 311: 28-37°C; for Zone Size Sabouarud Agar / Zone Size YNB agar: Table II, 37°C; for Zone Size YNB agar: lysine; for Zone Size B 311: Table IV-a
Protocol: The antifungal activity of aculeacin A and the compositions of aculeacin A and fatty acids was measured by disc diffusion.
The effects of a number of fatty acids on the antifungal activity of aculeacin A were determined by utilizing seeded plates of Candida albicans B 311 in yeast nitrogen base (YNB) agar (Difco) with glucose as the carbon source. A composition containing one unit by weight of aculeacin A and 5 units of fatty acid or the sodium salt thereof was spotted on the seeded plates and the size of the zone of inhibition after 16-18 hours incubation at 28-37 °C was measured.
Additional fatty acids were tested to determine , if they increased the intrinsic activity of aculeacin A against C. albicans B 311 utilizing seeded plates of YNB agar (Difco) with lysine as the carbon source and seeded plates of Sabouarud dextrose agar (Difco). Compositions containg one µg of aculeacin A and various amounts of the fatty acid was spotted on the seeded plates and the size of the zone of inhibition after 16-18 hours incubation at 37 °C was measured.
The antifungal effects of compositions containing a single amount of oleic acid as the sodium salt while varying the amounts of aculeacin A were determined by utilizing seeded plates of Candida albicans B 311 in Sabouarud dextrose agar and measuring the zone of inhibition after 16-18 hours incubation at 28-37°C.
as §2, §3

[5] = aculeacin A 0.40 µg + oleic acid (as sodium salt) 5 µg
[6] = aculeacin A 0.40 µg + oleic acid (as sodium salt) 10 µg
[7] = aculeacin A 0.40 µg + oleic acid (as sodium salt) 20 µg
[8] = aculeacin A 0.40 µg + oleic acid (as sodium salt) 40 µg
[9] = aculeacin A 0.40 µg + oleic acid (as sodium salt) 78 µg
[10] = aculeacin A 0.40 µg + oleic acid (as sodium salt) 156 µg
[11] = aculeacin A 0.40 µg + oleic acid (as sodium salt) 312 µg
[12] = aculeacin A 0.40 µg + oleic acid (as sodium salt) 625 µg
[13] = aculeacin A 0.40 µg + oleic acid (as sodium salt) 1250 µg

CCCCCCCC/C=C\CCCCCCCC(=O)O [Oleic Acid]
reduction in the infection [1]: did not inhibit the infection | Zone Size B 3153-A [2, 5]: 13 mm | Zone Size B 3153-A [2, 6]: 15 mm | Zone Size B 3153-A [2, 7]: 18 mm | Zone Size B 3153-A [2, 8]: 17 mm | Zone Size B 3153-A [2, 9]: 18 mm | Zone Size B 3153-A [2, 10]: 25 mm | Zone Size B 3153-A [2, 11]: 25 mm | Zone Size B 3153-A [2, 12]: 28 mm | Zone Size B 3153-A [2, 13]: 29 mm | Zone Size BC 759 [3, 5]: 13 mm | Zone Size BC 759 [3, 6]: 15 mm | Zone Size BC 759 [3, 7]: 18 mm | Zone Size BC 759 [3, 8]: 18 mm | Zone Size BC 759 [3, 9]: 20 mm | Zone Size BC 759 [3, 10]: 24 mm | Zone Size BC 759 [3, 11]: 28 mm | Zone Size BC 759 [3, 12]: 29 mm | Zone Size BC 759 [3, 13]: 32 mm | Zone Size ([4]; Table I, YNB agar, glucose as carbon source, composition of 1 unit by weight aculeacin A + 5 units fatty acid): 32 mm | Zone Size Sabouarud Agar ([4]; Sabouarud dextrose agar, aculeacin A 0 µg, fatty acid 250 µg alone): 0 mm | Zone Size Sabouarud Agar ([4]; Sabouarud dextrose agar, aculeacin A 0 µg, fatty acid 500 µg alone): 0 mm | Zone Size Sabouarud Agar ([4]; Sabouarud dextrose agar, aculeacin A 0 µg, fatty acid 1000 µg alone): 0 mm | Zone Size Sabouarud Agar ([4]; Sabouarud dextrose agar, composition of aculeacin A 1 µg + fatty acid 250 µg): 28 mm | Zone Size Sabouarud Agar ([4]; Sabouarud dextrose agar, composition of aculeacin A 1 µg + fatty acid 500 µg): 26 mm | Zone Size Sabouarud Agar ([4]; Sabouarud dextrose agar, composition of aculeacin A 1 µg + fatty acid 1000 µg): 26 mm | Zone Size YNB agar ([4]; YNB agar, aculeacin A 0 µg, fatty acid 250 µg alone): 0 mm | Zone Size YNB agar ([4]; YNB agar, aculeacin A 0 µg, fatty acid 500 µg alone): 0 mm | Zone Size YNB agar ([4]; YNB agar, aculeacin A 0 µg, fatty acid 1000 µg alone): 0 mm | Zone Size YNB agar ([4]; YNB agar, composition of aculeacin A 1 µg + fatty acid 250 µg): 35 mm | Zone Size YNB agar ([4]; YNB agar, composition of aculeacin A 1 µg + fatty acid 500 µg): 35 mm | Zone Size YNB agar ([4]; YNB agar, composition of aculeacin A 1 µg + fatty acid 1000 µg): 35 mm | Zone Size ([4]; Table III, Sabouarud dextrose agar, aculeacin A 0.000 µg, oleic acid (as sodium salt) 12.5 µg alone): 0 mm | Zone Size ([4]; Table III, Sabouarud dextrose agar, aculeacin A 0.020 µg + oleic acid (as sodium salt) 12.5 µg): trace | Zone Size ([4]; Table III, Sabouarud dextrose agar, aculeacin A 0.039 µg + oleic acid (as sodium salt) 12.5 µg): 28 mm | Zone Size ([4]; Table III, Sabouarud dextrose agar, aculeacin A 0.078 µg + oleic acid (as sodium salt) 12.5 µg): 29 mm | Zone Size ([4]; Table III, Sabouarud dextrose agar, aculeacin A 0.156 µg + oleic acid (as sodium salt) 12.5 µg): 32 mm | Zone Size ([4]; Table III, Sabouarud dextrose agar, aculeacin A 0.312 µg + oleic acid (as sodium salt) 12.5 µg): 35 mm | Zone Size ([4]; Table III, Sabouarud dextrose agar, aculeacin A 0.625 µg + oleic acid (as sodium salt) 12.5 µg): 35 mm | Zone Size ([4]; Table III, Sabouarud dextrose agar, aculeacin A 1.25 µg + oleic acid (as sodium salt) 12.5 µg): 37 mm | Zone Size B 311 [4, 5]: 13 mm | Zone Size B 311 [4, 6]: 14 mm | Zone Size B 311 [4, 7]: 15 mm | Zone Size B 311 [4, 8]: 17 mm | Zone Size B 311 [4, 9]: 20 mm | Zone Size B 311 [4, 10]: 26 mm | Zone Size B 311 [4, 11]: 30 mm | Zone Size B 311 [4, 12]: 32 mm | Zone Size B 311 [4, 13]: 35 mm
